In experiment [1] the test system is Streptococcus. In words: Luminescence Microorganism-Based Dose Response Follow up to Identify Compounds Cytotoxic to Streptococcus. [Related pubchem assays: 1677 (Project Summary), 1915, 1914, 1902 (Retest at Dose), 1900 (Counter Screen), 1662 (Primary HTS)]. Type of experiment: functional, organism-based. A general note: A counterscreen serves to expose hits that act by an unwanted route or on another target.

The next experiment has as its target T1, Streptokinase A (Streptococcus pyogenes serotype M1, UniProt P10520).
T1 sequence (P10520 whole entry): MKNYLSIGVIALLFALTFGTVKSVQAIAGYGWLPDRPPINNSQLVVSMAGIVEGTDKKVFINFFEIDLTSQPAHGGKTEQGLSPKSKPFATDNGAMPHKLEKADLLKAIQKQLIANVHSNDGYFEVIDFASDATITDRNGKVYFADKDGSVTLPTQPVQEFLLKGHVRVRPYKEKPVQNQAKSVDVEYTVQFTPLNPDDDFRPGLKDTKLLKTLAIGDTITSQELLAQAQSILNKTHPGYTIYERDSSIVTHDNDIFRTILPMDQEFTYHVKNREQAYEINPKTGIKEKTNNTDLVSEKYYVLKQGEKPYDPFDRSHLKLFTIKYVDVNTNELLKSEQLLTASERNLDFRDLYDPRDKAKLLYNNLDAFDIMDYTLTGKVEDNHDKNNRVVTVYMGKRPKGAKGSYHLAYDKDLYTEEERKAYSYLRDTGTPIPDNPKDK
In words: S. pyogenes streptokinase expression inhibitors, potency, dose response, plasminogen activation absorbance, OD405 (AID 1914).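 Also: secreted streptokinase activity via plasminogen activation per viability signal from cell pellet.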 Type of experiment: functional, Streptococcus pyogenes M1 GAS.

The subject of experiment [2] is Streptococcus. In words: Group A Streptococcus viability loss, dose response, counter-screen for streptokinase expression inhibitor project, luminescence, BacTiterGlo (AID 1915).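 Also: potency for reduction of bacterial viability or growth.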 Type of experiment: functional, organism-based.
Experiment [3] has as its system Streptococcus sp. 'group A'. In words: growth inhibition of control SK(-) GAS strain, dose response, counter-screen for streptokinase expression inhibitor project, luminescence, kanamycin, BacTiterGlo, confirmation (AID 1900). Format: functional, organism-based.
Experiment [4] has as its target Eukaryotic translation initiation factor 4H (Homo sapiens, UniProt Q15056). The experiment in a line: human eIF4H binding inhibitors, primary screen, translation initiation inhibitor project, biochemical, uHTS, fluorescence polarization (AID 2012).
Experiment [5] deals with Polyadenylate-binding protein 1 (Homo sapiens, UniProt P11940). In words: PABP poly(A) RNA binding inhibitors, primary screen, biochemical, fluorescence polarization, uHTS (AID 2014).
Another experiment relates to HeLa. In words: HeLa cell cytotoxicity, dose response, cytotoxicity control, 24 h, cherry-picked samples (AID 504726).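 Also: potency for cytotoxicity as loss of luminescence signal.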 Type of experiment: functional, cell-based. To be noted: Homo sapiens.
The target of experiment [6] is T2, RNA-binding protein pos-1 (Caenorhabditis elegans, UniProt G5EF15).
T2 sequence (G5EF15 whole entry): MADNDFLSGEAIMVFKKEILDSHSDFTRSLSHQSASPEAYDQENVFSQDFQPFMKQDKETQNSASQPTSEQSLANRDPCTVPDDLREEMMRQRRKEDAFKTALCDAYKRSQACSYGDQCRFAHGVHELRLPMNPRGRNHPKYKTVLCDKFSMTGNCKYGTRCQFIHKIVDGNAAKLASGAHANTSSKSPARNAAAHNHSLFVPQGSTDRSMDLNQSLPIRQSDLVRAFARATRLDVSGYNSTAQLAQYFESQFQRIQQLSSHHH
The experiment in a line: inhibitors of POS-1/mex-3 RNA binding, dose response, biochemical, fluorescence polarization (AID 1964).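 Also: purified POS-1 fused to maltose binding protein made in E. coli; potency of compounds blocking POS-1 binding to fluorescent RNA.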

Experiment [7] can be described thus: cells. Type of experiment: functional, cell-based.
The target in experiment [8] is FAD-linked sulfhydryl oxidase ALR (Homo sapiens, UniProt P55789). The experiment in a line: inhibitors of human ALR sulfhydryl oxidase, dose response, biochemical, H2O2 detection, luminescence, cherry-pick (AID 493248).
FAD-linked sulfhydryl oxidase ALR, sequence (P55789 whole entry): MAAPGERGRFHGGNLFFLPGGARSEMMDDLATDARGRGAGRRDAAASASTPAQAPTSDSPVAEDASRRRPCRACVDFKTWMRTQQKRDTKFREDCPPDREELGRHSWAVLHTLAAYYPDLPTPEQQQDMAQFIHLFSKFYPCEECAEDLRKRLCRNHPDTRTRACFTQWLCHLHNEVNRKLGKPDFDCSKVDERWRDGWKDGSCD
For a further experiment, the target named is Large T antigen (Simian virus 40, UniProt P03070). Type of experiment: functional, Betapolyomavirus macacae.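 Also: Confirmatory-stage PubChem screen for compounds that inhibit SV40 T antigen.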
Large T antigen, sequence (P03070 whole entry): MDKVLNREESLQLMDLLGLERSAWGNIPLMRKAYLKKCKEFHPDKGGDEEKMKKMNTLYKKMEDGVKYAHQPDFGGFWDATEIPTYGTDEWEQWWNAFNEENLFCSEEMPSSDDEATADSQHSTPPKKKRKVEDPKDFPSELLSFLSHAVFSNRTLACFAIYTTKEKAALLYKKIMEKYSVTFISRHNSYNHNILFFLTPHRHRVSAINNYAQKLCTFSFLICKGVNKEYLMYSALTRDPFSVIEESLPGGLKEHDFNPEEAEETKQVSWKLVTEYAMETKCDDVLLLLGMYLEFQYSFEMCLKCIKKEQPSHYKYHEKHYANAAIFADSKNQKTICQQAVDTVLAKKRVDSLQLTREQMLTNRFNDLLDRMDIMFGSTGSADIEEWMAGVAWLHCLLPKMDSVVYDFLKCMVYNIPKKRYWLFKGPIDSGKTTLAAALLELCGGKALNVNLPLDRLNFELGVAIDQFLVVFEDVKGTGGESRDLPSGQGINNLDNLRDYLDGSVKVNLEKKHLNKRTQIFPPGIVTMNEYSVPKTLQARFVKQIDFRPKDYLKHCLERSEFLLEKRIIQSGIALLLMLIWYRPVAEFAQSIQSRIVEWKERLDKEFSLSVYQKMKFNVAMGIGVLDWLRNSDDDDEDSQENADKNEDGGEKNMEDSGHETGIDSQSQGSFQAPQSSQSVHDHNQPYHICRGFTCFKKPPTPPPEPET
Experiment [9] has as its target 5-hydroxytryptamine receptor 2A (Mus musculus, UniProt P35363). Type of experiment: functional, cell-based.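 Also: CHO-K1 cells with tagged receptor and beta-arrestin; agonist potency measured as compound-induced activation of the receptor.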
In experiment [10] the target is T3, Zinc finger protein mex-5 (Caenorhabditis elegans, UniProt Q9XUB2).
T3 sequence (Q9XUB2 whole entry): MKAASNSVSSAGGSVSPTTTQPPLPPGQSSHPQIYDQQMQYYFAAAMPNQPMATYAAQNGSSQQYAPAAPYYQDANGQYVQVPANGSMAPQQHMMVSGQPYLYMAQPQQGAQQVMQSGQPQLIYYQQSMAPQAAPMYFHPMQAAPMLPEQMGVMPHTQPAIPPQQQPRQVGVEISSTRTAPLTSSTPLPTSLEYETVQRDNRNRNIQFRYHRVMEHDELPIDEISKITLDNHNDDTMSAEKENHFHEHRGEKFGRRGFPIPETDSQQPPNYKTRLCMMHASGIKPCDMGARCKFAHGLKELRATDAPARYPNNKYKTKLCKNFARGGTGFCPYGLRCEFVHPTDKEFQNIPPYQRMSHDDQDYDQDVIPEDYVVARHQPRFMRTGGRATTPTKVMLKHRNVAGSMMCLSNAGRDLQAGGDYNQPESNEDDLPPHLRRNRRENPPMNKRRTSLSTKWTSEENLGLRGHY
In words: MEX-5/TCR-2 RNA interaction inhibitors, dose response, biochemical, C. elegans, fluorescence polarization (AID 1960). Background: In fluorescence polarisation assays a small probe gives low polarisation when free and higher when bound to something large.

Another experiment has as its target Aspartyl aminopeptidase (Plasmodium falciparum 3D7, UniProt Q8I2J3).
A short description of experiment [11]: cells. Format: functional, cell-based. This is another data set of the same source.
The target in experiment [12] is T4, DNA repair and recombination protein RAD54-like (Homo sapiens, UniProt Q92698).
T4 sequence (Q92698 whole entry): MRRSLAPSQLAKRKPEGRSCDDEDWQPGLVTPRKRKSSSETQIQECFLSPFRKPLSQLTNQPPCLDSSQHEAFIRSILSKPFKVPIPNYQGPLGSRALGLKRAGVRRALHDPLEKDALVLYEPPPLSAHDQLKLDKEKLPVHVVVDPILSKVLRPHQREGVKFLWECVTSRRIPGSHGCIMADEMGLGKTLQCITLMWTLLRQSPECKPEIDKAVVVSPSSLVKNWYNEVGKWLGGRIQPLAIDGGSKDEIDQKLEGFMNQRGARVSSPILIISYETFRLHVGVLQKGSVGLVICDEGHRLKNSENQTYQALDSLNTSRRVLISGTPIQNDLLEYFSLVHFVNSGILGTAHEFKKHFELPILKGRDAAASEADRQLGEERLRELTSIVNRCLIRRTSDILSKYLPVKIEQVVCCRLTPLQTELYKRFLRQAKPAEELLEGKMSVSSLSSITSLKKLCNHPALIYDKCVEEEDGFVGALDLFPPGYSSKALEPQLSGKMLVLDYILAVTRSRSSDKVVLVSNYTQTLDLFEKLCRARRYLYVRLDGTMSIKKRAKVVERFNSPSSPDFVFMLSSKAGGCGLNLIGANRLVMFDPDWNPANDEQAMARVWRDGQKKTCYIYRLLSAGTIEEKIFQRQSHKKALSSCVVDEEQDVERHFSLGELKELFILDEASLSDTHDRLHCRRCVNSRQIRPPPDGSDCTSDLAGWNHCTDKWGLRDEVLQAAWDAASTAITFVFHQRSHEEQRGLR
The experiment in a line: inhibitors of human RAD54 branch migration, confirmation, biochemical, fluorescence, cherry-picked samples, dose series (AID 651657). Type of experiment: functional.

Another experiment addresses Mu-type opioid receptor (Homo sapiens, UniProt P35372). Format: functional, cell-based.
For another experiment, the target named is Procathepsin L (Homo sapiens, UniProt P07711).
Procathepsin L, sequence (P07711 whole entry): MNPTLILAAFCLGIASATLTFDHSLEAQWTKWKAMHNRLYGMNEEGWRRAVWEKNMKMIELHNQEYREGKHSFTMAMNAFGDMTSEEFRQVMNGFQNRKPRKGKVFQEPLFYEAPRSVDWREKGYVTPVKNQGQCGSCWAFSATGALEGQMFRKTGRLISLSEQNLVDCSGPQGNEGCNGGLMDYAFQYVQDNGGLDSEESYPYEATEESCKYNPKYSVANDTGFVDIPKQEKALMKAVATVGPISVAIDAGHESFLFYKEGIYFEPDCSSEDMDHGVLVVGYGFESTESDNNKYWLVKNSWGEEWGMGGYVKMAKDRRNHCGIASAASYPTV
The target in experiment [13] is T5, Dual specificity protein phosphatase 3 (Homo sapiens, UniProt P51452). The experiment in a line: MOA VHR1 Fluorescent secondary assay for identification of redox-state modulating compounds. [Related pubchem assays (depositor defined):AID1654, AID1661, AID1878, AID1957].
T5 sequence (P51452 whole entry): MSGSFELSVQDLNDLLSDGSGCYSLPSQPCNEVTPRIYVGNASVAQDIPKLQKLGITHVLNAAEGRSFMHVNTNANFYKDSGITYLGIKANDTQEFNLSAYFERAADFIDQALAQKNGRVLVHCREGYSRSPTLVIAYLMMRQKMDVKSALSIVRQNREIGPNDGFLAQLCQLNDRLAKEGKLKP
Experiment [14] has as its target T6, Dual specificity protein phosphatase 6 (Rattus norvegicus, UniProt Q64346).
T6 sequence (Q64346 whole entry): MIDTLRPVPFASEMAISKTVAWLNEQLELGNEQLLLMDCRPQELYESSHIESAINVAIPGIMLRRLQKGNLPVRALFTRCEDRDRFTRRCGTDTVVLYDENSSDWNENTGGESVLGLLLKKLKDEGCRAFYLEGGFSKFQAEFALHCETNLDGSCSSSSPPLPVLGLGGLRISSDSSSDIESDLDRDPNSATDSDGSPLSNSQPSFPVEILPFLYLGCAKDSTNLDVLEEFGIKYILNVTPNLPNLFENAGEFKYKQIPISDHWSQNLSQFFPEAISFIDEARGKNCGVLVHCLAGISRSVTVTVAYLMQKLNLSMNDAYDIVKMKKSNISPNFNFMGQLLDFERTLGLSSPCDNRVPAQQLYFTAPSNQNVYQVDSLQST

The target in experiment [15] is T7, Tyrosine-protein phosphatase non-receptor type 7 (Homo sapiens, UniProt P35236).
T7 sequence (P35236 whole entry): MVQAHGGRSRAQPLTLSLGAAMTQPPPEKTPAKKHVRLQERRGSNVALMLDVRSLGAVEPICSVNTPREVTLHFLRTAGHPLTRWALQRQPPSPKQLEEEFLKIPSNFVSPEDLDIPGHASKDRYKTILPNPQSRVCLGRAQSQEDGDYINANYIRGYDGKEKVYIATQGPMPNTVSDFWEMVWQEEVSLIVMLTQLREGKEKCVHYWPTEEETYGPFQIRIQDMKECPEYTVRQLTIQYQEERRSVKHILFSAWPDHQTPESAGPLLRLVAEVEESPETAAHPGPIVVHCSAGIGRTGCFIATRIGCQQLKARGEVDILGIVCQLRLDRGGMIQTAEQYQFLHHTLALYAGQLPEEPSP
In words: redox-dependent HePTP inhibition, mechanism study, biochemical, fluorescence (AID 2068). Type of experiment: functional.

Experiment [16] deals with T6, Dual specificity protein phosphatase 6. Type of experiment: functional.
The target of experiment [17] is Glyceraldehyde-3-phosphate dehydrogenase (Homo sapiens, UniProt P04406).
Glyceraldehyde-3-phosphate dehydrogenase, sequence (P04406 whole entry): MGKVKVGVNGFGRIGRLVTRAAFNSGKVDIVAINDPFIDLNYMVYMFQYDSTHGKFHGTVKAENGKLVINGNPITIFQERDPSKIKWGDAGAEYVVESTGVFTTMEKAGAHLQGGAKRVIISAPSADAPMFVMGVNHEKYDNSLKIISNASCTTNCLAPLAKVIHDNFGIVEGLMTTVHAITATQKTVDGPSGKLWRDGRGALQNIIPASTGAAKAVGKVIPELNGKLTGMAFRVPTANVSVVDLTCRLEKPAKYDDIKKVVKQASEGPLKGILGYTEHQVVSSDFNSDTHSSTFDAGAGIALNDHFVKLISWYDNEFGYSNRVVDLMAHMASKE
In experiment [18] the target is T5, Dual specificity protein phosphatase 3. In words: SAR VHR1 Fluorescent Assay for In Vitro dose response studies. [Related pubchem assays (depositor defined):AID1654, AID1661, AID1878, AID1992, AID2004, AID2070, AID2085]. Format: functional.
The target of experiment [19] is T7, Tyrosine-protein phosphatase non-receptor type 7. Type of experiment: functional.
A short description of experiment [20]: growth suppression of PTEN-null colon cells, dose response, cell-based, HCT116 PTEN knockout (AID 1047).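 Also: HCT116 colon tumor cells with PTEN knocked out; cells exposed to compound for 60 hours before readout; potency for loss of cell viability measured by luminescence.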 Format: functional.
Experiment [21] can be described thus: growth suppression of beta-catenin-knockout colon cells, dose response, cell-based, HCT116, human colon tumor (AID 1045).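 Also: HCT116 colon tumor cells with beta catenin knocked out; cells exposed to compound for 60 hours.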 Format: functional.
The target in experiment [22] is Scavenger receptor class B member 1 (Mus musculus, UniProt Q61009). The experiment in a line: inhibitors of SR-BI mediated HDL lipid uptake, dose response, ldlA[mSR-BI] cells, fluorescence, cherry pick (AID 493194).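 Also: cellular uptake of fluorescent DiI-labeled HDL measured as cell fluorescence.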 Format: functional, cell-based.
Scavenger receptor class B member 1, sequence (Q61009 whole entry): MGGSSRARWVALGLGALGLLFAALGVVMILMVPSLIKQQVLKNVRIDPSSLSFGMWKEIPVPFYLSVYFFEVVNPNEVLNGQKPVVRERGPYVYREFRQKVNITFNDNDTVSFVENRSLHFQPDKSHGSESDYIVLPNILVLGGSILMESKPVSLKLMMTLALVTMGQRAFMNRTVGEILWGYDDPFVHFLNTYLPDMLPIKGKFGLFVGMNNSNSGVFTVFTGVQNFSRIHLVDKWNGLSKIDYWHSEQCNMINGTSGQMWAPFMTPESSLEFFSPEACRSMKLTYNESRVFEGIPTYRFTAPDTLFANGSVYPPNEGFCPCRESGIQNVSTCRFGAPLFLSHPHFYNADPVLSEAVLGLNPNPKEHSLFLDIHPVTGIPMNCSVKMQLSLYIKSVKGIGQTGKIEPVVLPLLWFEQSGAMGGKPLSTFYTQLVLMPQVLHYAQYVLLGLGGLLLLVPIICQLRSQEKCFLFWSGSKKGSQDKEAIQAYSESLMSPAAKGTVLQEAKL
In experiment [23] the target is Melanin-concentrating hormone receptor 1 (Homo sapiens, UniProt Q99705). In words: Fluorescence-based counterscreen for antagonists of the G-protein coupled receptor 7 (GPR7): cell-based high throughput dose response assay to identify antagonists of the melanin-concentrating hormone receptor 1 (MCHR1). Format: functional.
Melanin-concentrating hormone receptor 1, sequence (Q99705 whole entry): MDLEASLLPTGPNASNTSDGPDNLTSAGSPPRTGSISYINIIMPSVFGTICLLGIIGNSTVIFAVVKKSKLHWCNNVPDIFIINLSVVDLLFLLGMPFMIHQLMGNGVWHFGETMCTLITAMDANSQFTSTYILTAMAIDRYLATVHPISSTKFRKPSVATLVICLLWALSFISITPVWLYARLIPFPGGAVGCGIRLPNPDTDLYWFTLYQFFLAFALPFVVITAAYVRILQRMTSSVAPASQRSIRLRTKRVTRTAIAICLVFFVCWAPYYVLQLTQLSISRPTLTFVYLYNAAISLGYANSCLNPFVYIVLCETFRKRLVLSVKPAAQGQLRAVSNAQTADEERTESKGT
Experiment [24] deals with Neuropeptides B/W receptor type 1 (Homo sapiens, UniProt P48145). The experiment in a line: Fluorescence-based dose response cell-based high throughput screening assay to identify antagonists of the G-protein coupled receptor 7 (GPR7). [Related pubchem assays: 1952 (Screening assay (GPR7 antagonists).), 1880 (Summary AID.)]. Format: functional.
Neuropeptides B/W receptor type 1, sequence (P48145 whole entry): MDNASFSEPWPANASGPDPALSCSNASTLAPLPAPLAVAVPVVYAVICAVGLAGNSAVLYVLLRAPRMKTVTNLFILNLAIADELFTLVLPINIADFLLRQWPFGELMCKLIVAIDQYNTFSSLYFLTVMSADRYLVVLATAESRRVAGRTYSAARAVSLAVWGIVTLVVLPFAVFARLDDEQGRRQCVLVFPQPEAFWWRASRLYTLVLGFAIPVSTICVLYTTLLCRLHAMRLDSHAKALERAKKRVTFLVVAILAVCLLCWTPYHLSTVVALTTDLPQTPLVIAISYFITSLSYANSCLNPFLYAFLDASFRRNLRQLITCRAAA

The record followed here is ChEMBL document CHEMBL1201862, “PubChem BioAssay data set” (2004).

Molecules are shown by their SMILES. The source made the active and inactive calls.

5-hydroxytryptamine receptor 2A, sequence (P35363 whole entry): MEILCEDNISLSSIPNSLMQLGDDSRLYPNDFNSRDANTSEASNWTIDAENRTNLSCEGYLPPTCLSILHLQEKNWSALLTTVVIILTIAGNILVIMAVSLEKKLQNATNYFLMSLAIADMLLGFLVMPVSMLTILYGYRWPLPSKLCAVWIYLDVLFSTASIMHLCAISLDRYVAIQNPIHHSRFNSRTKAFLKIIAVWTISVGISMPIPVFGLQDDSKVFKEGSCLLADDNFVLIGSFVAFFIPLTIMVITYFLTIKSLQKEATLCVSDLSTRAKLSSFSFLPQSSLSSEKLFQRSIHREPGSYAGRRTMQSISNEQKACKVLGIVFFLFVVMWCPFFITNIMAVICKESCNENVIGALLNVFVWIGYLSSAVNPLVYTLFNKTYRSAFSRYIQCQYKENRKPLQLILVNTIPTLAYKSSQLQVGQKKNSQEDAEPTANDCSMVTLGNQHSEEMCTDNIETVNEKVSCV
Aspartyl aminopeptidase, sequence (Q8I2J3 whole entry): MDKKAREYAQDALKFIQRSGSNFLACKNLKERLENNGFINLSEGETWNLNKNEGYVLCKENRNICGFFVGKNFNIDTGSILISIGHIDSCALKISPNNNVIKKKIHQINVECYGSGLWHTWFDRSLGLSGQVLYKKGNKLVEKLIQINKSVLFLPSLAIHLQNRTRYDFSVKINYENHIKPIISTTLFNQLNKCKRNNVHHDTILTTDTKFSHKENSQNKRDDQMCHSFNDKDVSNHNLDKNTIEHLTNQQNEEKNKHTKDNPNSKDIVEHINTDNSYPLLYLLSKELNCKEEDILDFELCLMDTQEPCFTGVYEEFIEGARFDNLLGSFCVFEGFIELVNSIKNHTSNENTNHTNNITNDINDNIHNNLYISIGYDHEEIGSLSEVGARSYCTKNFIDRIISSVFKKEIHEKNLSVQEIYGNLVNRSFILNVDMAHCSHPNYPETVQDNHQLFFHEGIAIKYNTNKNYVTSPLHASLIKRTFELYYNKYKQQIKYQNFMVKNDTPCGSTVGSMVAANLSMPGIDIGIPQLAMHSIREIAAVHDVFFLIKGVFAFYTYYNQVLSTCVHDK
Mu-type opioid receptor, sequence (P35372 whole entry): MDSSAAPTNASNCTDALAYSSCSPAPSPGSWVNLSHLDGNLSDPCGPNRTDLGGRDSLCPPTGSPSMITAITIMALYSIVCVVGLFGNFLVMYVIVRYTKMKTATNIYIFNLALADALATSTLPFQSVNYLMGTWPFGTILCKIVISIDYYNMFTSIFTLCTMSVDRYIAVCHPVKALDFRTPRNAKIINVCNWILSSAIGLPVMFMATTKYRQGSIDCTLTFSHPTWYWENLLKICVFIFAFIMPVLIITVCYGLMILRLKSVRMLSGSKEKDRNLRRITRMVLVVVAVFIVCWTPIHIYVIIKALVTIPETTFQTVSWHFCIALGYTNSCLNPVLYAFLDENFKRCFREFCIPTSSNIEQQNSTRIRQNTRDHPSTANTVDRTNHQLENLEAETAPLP

On to `O=C(NC(=S)Nc1ccccc1N1CCCC1)c1ccccc1Br`, for which the EC50 – broadly, the midpoint of the concentration-response curve – in the experiment on Streptococcus [1] was > 500 µM (not active); on Streptokinase A it was 6.61 µM (active); in the experiment with Streptococcus [2], > 150 µM (not active); in [3], 32.3 µM (active).
As to `CCc1ccc(NS(=O)(=O)c2ccc(C)c(C(=O)N3CCOCC3)c2)cc1`, the IC50 (as a rule, the midpoint of a concentration-inhibition curve) in experiment [4] was > 100 µM (inactive); in [5], 6.21 µM (active).
`COC(=O)c1ccc(Oc2nc(Nc3ccc(F)cc3)nc(N3CCCC3)n2)cc1`: the AC50 (as a rule, the midpoint of the concentration-response curve, whichever way the signal moves) in the experiment on HeLa was 289 µM (active).
Turning to `Oc1ccc(CCNc2c3ccccc3nc3ccccc23)cc1O`, the EC50 in experiment [6] was > 300 µM (not active); in “cells [7]”, > 350 µM (not active); in [9] it was 76.1 µM (inactive); in [10], 10.1 µM (active); in the experiment “cells [11]” it was > 350 µM (not active); on Mu-type opioid receptor, 92.5 µM (inactive). The AC50 in [8] is 2.76 µM (active); in [12] it was 1.87 µM (active). Also, the IC50 at Large T antigen was 8.41 µM (active); at Aspartyl aminopeptidase it was 2.49 µM (active); against Procathepsin L it was > 59.6 µM (not active).
With `O=c1/c(=C/c2ccc(-c3cc(Cl)cc(Cl)c3)o2)sc2nc3cc(Br)cnc3n12`, the IC50 was 2.23 µM (active) in experiment [13]; > 100 µM (inactive) in [14]; 1.15 µM (active) in [15]; > 100 µM (inactive) in experiment [16]; > 100 µM (not active) in [17]; 8.81 µM (active) in experiment [18]. Moreover, the IC50 in experiment [19] was > 100 µM (not active).
For `COc1ccc(-c2nc(-c3ccc4c(c3)OCO4)[nH]c2-c2ccc(OC)cc2)cc1`, the EC50 in [20] was 16.7 µM (active); on Streptokinase A, 2.07 µM (active); in the experiment on Streptococcus [2], > 150 µM (not active); in experiment [21] it was 19.2 µM (active); in [3], 2.62 µM (active). Also, in [22], the AC50 is 18.1 µM (active).
Take `Clc1ccc(CN(Cc2ccc(Cl)cc2)c2nnn[nH]2)cc1`: the IC50 in experiment [23] and in experiment [24] was > 14.6 µM (not active) each time.
